Reference: patent US20090191578A1, “Canis sphingosine 1-phosphate receptor isoform 5” (MERCK & CO., INC, priority 2004, published 2009)

Key:
[1] = target: T1, cS1P5 receptor (Canis lupus familiaris, UniProt A0A8I3Q0H0); experiment: S1P ligand binding assay with transfected CHO cells expressing the cS1P5 receptor; set-up: species or system Canis (dog); details: 33P-S1P, 60 minutes at room temperature, FIG. 3
Protocol: The transfected CHO cells from Example 2 expressing the cS1P5 receptor were evaluated for the ability of the cS1P5 receptor expressed in the cells to properly integrate into the cell membrane and bind S1P.
Transfected CHO cells from Example 2 were harvested with enzyme-free dissociation solution (Specialty Media, Lavallette, N.J.). The cells were washed once in cold PBS and suspended in S1P binding buffer (50 mM HEPES-Na, pH 7.5, 5mM MgCl2, 1 mM CaCl2, 0.5% FAF-BSA). ^33P-S1P was synthesized enzymatically from γ^33P-ATP and sphingosine using a crude extract with sphingosine kinase activity in a reaction mix containing 50 mM KH2PO4, 1 mM mercaptoethanol, 1 mM Na3VO4, 25 mM KF, 2 mM semicarbazide, 1 mM Na2EDTA, 5 mM MgCl2, […], 0.1% TritonX-114, and 1 mCi γ^33P-ATP (NEN; specific activity 2000 Ci/mmol). Reaction products were extracted with butanol and ^33P-sphingosine-1-phosphate was purified by HPLC.
^33P-S1P (0.1 uCi/ml) was sonicated with 0.2 nM sphingosine-1-phosphate dissolved in binding buffer; 100 μL of the mixture was added to 100 μL cells (1×10^5). Binding was performed for 60 minutes at room temperature. […] After drying the filter plates for 30 minutes, 50 μL of MICROSCINT 20 was added to each well and binding was measured with a Packard Top Count. Non-specific binding was defined as the amount of radioactivity remaining in the presence of 200 nM cold S1P.

[2] = target: T1, cS1P5 receptor; experiment: 35S-GTPγS binding assay with membranes from transfected CHO cells expressing the cS1P5 receptor; type: biochemical, Canis (dog); details: 5 μM GDP, 100 pM 35S-GTPγS, one hour at room temperature, FIG. 4, read-out: EC50 (35S-GTPγS binding, coupling GTP to Gα)
Protocol: Functional coupling of S1P5 receptor to G proteins was measured in a ^35S-GTPγS binding assay. Membranes were prepared from transfected cells by homogenization in ice cold 20 mM HEPES pH 7.4, 10 mM EDTA using a Kinematica polytron (setting 5, for 10 seconds). Homogenates were centrifuged at 48,000×g for 15 minutes at 4° C. and the pellet suspended in 20 mM HEPES pH 7.4, 0.1 mM EDTA. Following a second centrifugation, the final pellet was suspended in 20 mM HEPES pH 7.4, 100 mM NaCl, 10 mM MgCl2. Membranes were incubated in 200 μL with 5 μM GDP, various concentrations of S1P (sonicated in 1% BSA), and 100 pM ^35S-GTPγS (NEN; specific activity 1250 Ci/mmol) in 96 well microtiter dishes. Binding was performed for one hour at room temperature, and terminated by harvesting the membranes onto GF/B filter plates with a Packard Filtermate Universal Harvester. After drying the filter plates for 30 min, 40 μL of MICROSCINT 20 was added to each well and binding was measured on a Packard Top Count scintillation counter.

With `CCCCCCCCCCCCC/C=C/[C@@H](O)[C@@H](N)COP(=O)(O)O` [S1P, sphingosine-1-phosphate] the EC50 [1] was about 0.21 nM and the EC50 [2] was about 0.79 nM.
